The text below walks through data of the supplement of paper PMC11208160.

The data set is described as follows: recombinant UMI read abundance after kanamycin selection (control-corrected) (log10(CPM+1)); higher = more efficient recombination; extreme values may be limits of the assay; sequences stand for … in AGTGCAGAGAAAATCGGCCAGTTTTCTCTGCCTGCAGTCCGCATGCCGTGGGACCCCTTGGGTTCTAACCTGTTGCCTAGATTTATGCAGCGGACTGCCTTTCTCCCAAAGTGATAAACCGG…AGGTTGGTTTCACT; site = the 11-nt donor. On the procedure: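 Pooled E. coli donor-specificity screen for the IS621 bridge recombinase. Each library member carries a reprogrammed 11-nt donor and a full-length LE bridge RNA expressed in cis from the natural promoter, with a paired donor-binding loop (8-nt LDG + 4-nt RDG) and a target-binding loop fixed to T5. It is co-electroporated with a T5 target plasmid; recombinase is induced with 0.07 mM IPTG and recombinants are selected on kanamycin. UMIs are counted as CPM, averaged over two biological replicates and corrected by the unselected control. Molecule = full bridge RNA written as DNA, built from the T5 scaffold: LDG = donor specificity nt 1-8, RDG = reverse complement of nt 8-11.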
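Further: IS621 bridge recombinase in Escherichia coli cells against a fixed T5 target plasmid.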

Turning to “ACCTAGCCATGGACCGGTTTTCCCGGTAATCCGTATTTGGG (site ACCTAGCCTCC)”, the “recombinant UMI read abundance (log10)” value was found to be 0.00989.

“ACCTAGCCATGGACCGGTTTTCCCGGTAATCCGTATTTGGG (site ACCTAGGCTCC)”: the “recombinant UMI read abundance (log10)” value is 0.0311.

Turning to “ACCTAGCCATGGACCGGTTTTCCCGGTAATCCGTATTTGGG (site ACCTAGTCTCC)”, the “recombinant UMI read abundance (log10)” value worked out at 0.0502.

With “ACCTATACATGGACCGGTTTTCCCGGTAATCCGTATTTGGG (site ACCTAAACTCC)”, the “recombinant UMI read abundance (log10)” value was 0.00642.

For the sequence “ACCTATACATGGACCGGTTTTCCCGGTAATCCGTATTTGGG (site ACCTACACTCC)”, the “recombinant UMI read abundance (log10)” value was determined as 0.0606.

“ACCTATACATGGACCGGTTTTCCCGGTAATCCGTATTTGGG (site ACCTAGACTCC)”: the “recombinant UMI read abundance (log10)” value was 0.0071.

As for “ACCTATACATGGACCGGTTTTCCCGGTAATCCGTATTTGGG (site ACCTATACTCC)”, the “recombinant UMI read abundance (log10)” value was 0.0144.

As to “ACCTCATCATGGACCGGTTTTCCCGGTAATCCGTATTTGGT (site ACCTCATCTAC)”, the “recombinant UMI read abundance (log10)” value was 0.128.

For “ACCTCCGCATGGACCGGTTTTCCCGGTAATCCGTATTTGAG (site ACCTCCGCTCT)”, the “recombinant UMI read abundance (log10)” value stood at 0.147.

Consider “ACCTCTCCATGGACCGGTTTTCCCGGTAATCCGTATTTGCA (site ACCTCTCCTTG)”, for which the “recombinant UMI read abundance (log10)” value was 0.367.

On to “ACCTGGACATGGACCGGTTTTCCCGGTAATCCGTATTTGAG (site ACCTGGACTCT)”, for which the “recombinant UMI read abundance (log10)” value came to 1.41.

As for “ACCTTTCCATGGACCGGTTTTCCCGGTAATCCGTATTTGGT (site ACCTTTCCTAC)”, the “recombinant UMI read abundance (log10)” value was 0.

On to “ACGAAAACATGGACCGGTTTTCCCGGTAATCCGTATTTGCT (site ACGAAAACTAG)”, for which the “recombinant UMI read abundance (log10)” value was determined as 1.81.

Regarding “ACGAAAACATGGACCGGTTTTCCCGGTAATCCGTATTTGCT (site CCGAAAACTAG)”, the “recombinant UMI read abundance (log10)” value was determined as 0.

Regarding “ACGAAAACATGGACCGGTTTTCCCGGTAATCCGTATTTGCT (site GCGAAAACTAG)”, the “recombinant UMI read abundance (log10)” value was 0.581.

On to “ACGAAAACATGGACCGGTTTTCCCGGTAATCCGTATTTGCT (site TCGAAAACTAG)”, for which the “recombinant UMI read abundance (log10)” value stood at 0.

In the case of “ACGAATCCATGGACCGGTTTTCCCGGTAATCCGTATTTGTT (site ACGAATCCTAA)”, the “recombinant UMI read abundance (log10)” value was 1.32.

As to “ACGAATCCATGGACCGGTTTTCCCGGTAATCCGTATTTGTT (site CGGAATCCTAA)”, the “recombinant UMI read abundance (log10)” value came out at 0.

As to “ACGACCACATGGACCGGTTTTCCCGGTAATCCGTATTTGTT (site ACGACCACTAA)”, the “recombinant UMI read abundance (log10)” value amounted to 1.29.

Regarding “ACGACTACATGGACCGGTTTTCCCGGTAATCCGTATTTGAC (site AAGACTACTGT)”, the “recombinant UMI read abundance (log10)” value is 1.19.

Take “ACGACTACATGGACCGGTTTTCCCGGTAATCCGTATTTGAC (site ACGACTACTGT)”: the “recombinant UMI read abundance (log10)” value was found to be 2.45.

As for “ACGACTACATGGACCGGTTTTCCCGGTAATCCGTATTTGAC (site AGGACTACTGT)”, the “recombinant UMI read abundance (log10)” value was 0.613.

As to “ACGACTACATGGACCGGTTTTCCCGGTAATCCGTATTTGAC (site ATGACTACTGT)”, the “recombinant UMI read abundance (log10)” value turned out to be 1.69.

As for “ACGAGGCCATGGACCGGTTTTCCCGGTAATCCGTATTTGCC (site ACGAGGCCTGG)”, the “recombinant UMI read abundance (log10)” value was 0.486.

In the case of “ACGAGTCCATGGACCGGTTTTCCCGGTAATCCGTATTTGGG (site ACGAGTCCTCC)”, the “recombinant UMI read abundance (log10)” value is 0.00727.

As for “ACGAGTGCATGGACCGGTTTTCCCGGTAATCCGTATTTGGT (site ACAAGTGCTAC)”, the “recombinant UMI read abundance (log10)” value stood at 2.22.

As for “ACGAGTGCATGGACCGGTTTTCCCGGTAATCCGTATTTGGT (site ACCAGTGCTAC)”, the “recombinant UMI read abundance (log10)” value is 0.837.

On to “ACGAGTGCATGGACCGGTTTTCCCGGTAATCCGTATTTGGT (site ACGAGTGCTAC)”, for which the “recombinant UMI read abundance (log10)” value stood at 2.31.

“ACGAGTGCATGGACCGGTTTTCCCGGTAATCCGTATTTGGT (site ACTAGTGCTAC)”: the “recombinant UMI read abundance (log10)” value came to 1.22.

As to “ACGCAATCATGGACCGGTTTTCCCGGTAATCCGTATTTGAT (site ACGCAATCTAT)”, the “recombinant UMI read abundance (log10)” value is 2.55.

As for “ACGCACGCATGGACCGGTTTTCCCGGTAATCCGTATTTGCA (site ACGCACGCTTG)”, the “recombinant UMI read abundance (log10)” value amounted to 2.71.

For “ACGCCTACATGGACCGGTTTTCCCGGTAATCCGTATTTGAG (site ACGCCTACTCT)”, the “recombinant UMI read abundance (log10)” value was 0.69.

In the case of “ACGCGCACATGGACCGGTTTTCCCGGTAATCCGTATTTGTT (site ACGCGCACTAA)”, the “recombinant UMI read abundance (log10)” value was determined as 1.61.

As for “ACGCGTCCATGGACCGGTTTTCCCGGTAATCCGTATTTGAC (site ACGCGTCCTGT)”, the “recombinant UMI read abundance (log10)” value came to 1.55.

On to “ACGGAACCATGGACCGGTTTTCCCGGTAATCCGTATTTGAG (site ACGGAACCTCT)”, for which the “recombinant UMI read abundance (log10)” value was 0.

As for “ACGGAATCATGGACCGGTTTTCCCGGTAATCCGTATTTGTC (site ACGGAATCTGA)”, the “recombinant UMI read abundance (log10)” value turned out to be 1.95.

For “ACGGATTCATGGACCGGTTTTCCCGGTAATCCGTATTTGCG (site ACGGATTCTCG)”, the “recombinant UMI read abundance (log10)” value worked out at 2.66.

For the sequence “ACGTAGACATGGACCGGTTTTCCCGGTAATCCGTATTTGGG (site ACATAGACTCC)”, the “recombinant UMI read abundance (log10)” value was 0.351.

As to “ACGTAGACATGGACCGGTTTTCCCGGTAATCCGTATTTGGG (site ACCTAGACTCC)”, the “recombinant UMI read abundance (log10)” value came out at 0.0219.

“ACGTAGACATGGACCGGTTTTCCCGGTAATCCGTATTTGGG (site ACGTAGACTCC)”: the “recombinant UMI read abundance (log10)” value came out at 0.4.

For the sequence “ACGTAGACATGGACCGGTTTTCCCGGTAATCCGTATTTGGG (site ACTTAGACTCC)”, the “recombinant UMI read abundance (log10)” value was 0.0197.

Consider “ACGTCTACATGGACCGGTTTTCCCGGTAATCCGTATTTGTG (site ACATCTACTCA)”, for which the “recombinant UMI read abundance (log10)” value was 0.796.

As to “ACGTCTACATGGACCGGTTTTCCCGGTAATCCGTATTTGTG (site ACCTCTACTCA)”, the “recombinant UMI read abundance (log10)” value worked out at 0.39.

Take “ACGTCTACATGGACCGGTTTTCCCGGTAATCCGTATTTGTG (site ACGTCTACTCA)”: the “recombinant UMI read abundance (log10)” value amounted to 0.512.

Turning to “ACGTCTACATGGACCGGTTTTCCCGGTAATCCGTATTTGTG (site ACTTCTACTCA)”, the “recombinant UMI read abundance (log10)” value turned out to be 0.0124.

For the sequence “ACGTCTGCATGGACCGGTTTTCCCGGTAATCCGTATTTGCT (site ACGTCTGCTAG)”, the “recombinant UMI read abundance (log10)” value stood at 1.98.

For “ACTAACCCATGGACCGGTTTTCCCGGTAATCCGTATTTGGC (site ACTAACCCTGC)”, the “recombinant UMI read abundance (log10)” value was 0.

As for “ACTAATGCATGGACCGGTTTTCCCGGTAATCCGTATTTGGT (site ACTAATGCTAC)”, the “recombinant UMI read abundance (log10)” value came out at 1.88.

Consider “ACTAATGCATGGACCGGTTTTCCCGGTAATCCGTATTTGGT (site ACTACTGCTAC)”, for which the “recombinant UMI read abundance (log10)” value was 0.116.

In the case of “ACTAATGCATGGACCGGTTTTCCCGGTAATCCGTATTTGGT (site ACTAGTGCTAC)”, the “recombinant UMI read abundance (log10)” value was determined as 0.00699.

In the case of “ACTAATGCATGGACCGGTTTTCCCGGTAATCCGTATTTGGT (site ACTATTGCTAC)”, the “recombinant UMI read abundance (log10)” value came out at 0.568.

On to “ACTACAACATGGACCGGTTTTCCCGGTAATCCGTATTTGAG (site ACTAAAACTCT)”, for which the “recombinant UMI read abundance (log10)” value turned out to be 0.00762.

Take “ACTACAACATGGACCGGTTTTCCCGGTAATCCGTATTTGAG (site ACTACAACTCT)”: the “recombinant UMI read abundance (log10)” value stood at 1.22.

As for “ACTACAACATGGACCGGTTTTCCCGGTAATCCGTATTTGAG (site ACTAGAACTCT)”, the “recombinant UMI read abundance (log10)” value came to 0.216.

Take “ACTACAACATGGACCGGTTTTCCCGGTAATCCGTATTTGAG (site ACTATAACTCT)”: the “recombinant UMI read abundance (log10)” value came to 0.494.

Turning to “ACTAGAACATGGACCGGTTTTCCCGGTAATCCGTATTTGAA (site ACTAGAACTAT)”, the “recombinant UMI read abundance (log10)” value amounted to 0.

For “ACTAGAACATGGACCGGTTTTCCCGGTAATCCGTATTTGAA (site ACTAGAACTCT)”, the “recombinant UMI read abundance (log10)” value was 0.

For “ACTAGAACATGGACCGGTTTTCCCGGTAATCCGTATTTGAA (site ACTAGAACTGT)”, the “recombinant UMI read abundance (log10)” value is 0.

As to “ACTAGAACATGGACCGGTTTTCCCGGTAATCCGTATTTGAA (site ACTAGAACTTT)”, the “recombinant UMI read abundance (log10)” value amounted to 1.45.

Turning to “ACTAGAACATGGACCGGTTTTCCCGGTAATCCGTATTTGAC (site ACTAGAACTAT)”, the “recombinant UMI read abundance (log10)” value was found to be 0.00676.

On to “ACTAGAACATGGACCGGTTTTCCCGGTAATCCGTATTTGAC (site ACTAGAACTCT)”, for which the “recombinant UMI read abundance (log10)” value was found to be 0.0218.

As to “ACTAGAACATGGACCGGTTTTCCCGGTAATCCGTATTTGAC (site ACTAGAACTGT)”, the “recombinant UMI read abundance (log10)” value was found to be 2.13.

As for “ACTAGAACATGGACCGGTTTTCCCGGTAATCCGTATTTGAC (site ACTAGAACTTT)”, the “recombinant UMI read abundance (log10)” value stood at 0.322.

Turning to “ACTAGAACATGGACCGGTTTTCCCGGTAATCCGTATTTGAT (site ACTAGAACTAT)”, the “recombinant UMI read abundance (log10)” value was determined as 1.24.

Turning to “ACTAGAACATGGACCGGTTTTCCCGGTAATCCGTATTTGAT (site ACTAGAACTCT)”, the “recombinant UMI read abundance (log10)” value came out at 0.0111.
